From US8198285B2, “Pyrazine derivatives” (Astrazeneca AB, priority 2010, dated 2012) come the findings set out here.

Structures can show the parent of a compound that is named as a salt.

For the assay, the system named is β-catenin accumulation in the nucleus of murine C3H/10T1/2 cells. Kind of assay: Cellular beta-catenin stabilisation assay, Test (b). It counts as cell-based. As to conditions: Mus musculus, 24 hours, read-out: EC50 versus cellular β-catenin accumulation in the nucleus of murine C3H/10T1/2 cells. The procedure:
This assay uses an imaging based approach to measure the ability of test compounds to promote Beta-catenin stabilisation in the nucleus of C3H10T1/2 cells. Beta-catenin stabilisation is an indicator of GSK3β inhibition.
A C3H10T1/2 mouse clone 8 fibroblast cell line (American Type Culture Collection (ATCC, USA; catalogue number CRL 226) was routinely maintained at 37° C. with 5% CO2 in Basal Medium Eagle (BME, Invitrogen; Paisley, UK; catalogue number 41010) containing 10% (v/v) foetal bovine serum (FBS, Invitrogen, Paisley; UK; catalogue number 10270) and 2 mM L-glutamine (Invitrogen, Paisley, UK; catalogue number 25030024). For the assay, the cells were detached from the culture flask with ‘Accutase’ (Innovative Cell Technologies Inc., San Diego, USA; catalogue number AT104) using standard tissue culture methods and re-suspended in assay media comprising of BME containing 5% (v/v) FBS and 2 mM L-glutamine to give 55,555 cells per ml. Then, 90 μl of this solution was seeded into each well of a clear-bottom 96 well tissue culture plate (Perkin Elmer Viewplate; catalogue number 6005182) using a Multidrop Combi Dispenser (Thermo Fisher Scientific, Loughborough, UK) to give 5,000 cells per well. Plates were incubated overnight at 37° C. with 5% CO2 to allow the cells to adhere to the wells. Test compounds were prepared as 10 mM stock solutions in dimethylsulphoxide (DMSO) (Sigma-Aldrich; Poole, UK, catalogue number 49442-9) and serially diluted in DMSO. A Multidrop Combi was used to dispense 245 μl of pre-warmed assay media into a 96 well plate (Thermo Fisher Scientific, Loughborough, UK; catalogue number 50823925) before 5 μl of serially diluted compound was added to this intermediate plate. After mixing, 10 μl of each compound concentration was added to the cell plates. The total dilution factor from DMSO stock was 500 times. Control cells received either DMSO (0.2% v/v final concentration) or 10 μM positive control compound. The cells were incubated for 24 hours at 37° C. with 5% CO2.
After compound treatment the cells were fixed by the addition of 100 μl of 8% w/v paraformaldehyde (Sigma-Aldrich, Poole, UK; catalogue number P6148), directly into the assay plate wells. The cells were incubated at ambient temperature with fixative for 30 minutes before washing 3 times with 100 μl phosphate-buffered saline (PBS, Sigma-Aldrich; catalogue number D8537). […] The cells were then washed 3 times in 100 μl of PBS before the plates were sealed ready for image capture. Fluorescent images were captured and quantified using the Incell Analyser 3000 (GE Healthcare, USA). […]

For the compound `COCCCNCCCc1ccc(-c2cnc(N)c(C(=O)Nc3cccnc3)n2)cc1` [Example 1, 3-Amino-6-(4-{3-[(3-methoxypropyl)amino]propyl}phenyl)-N-pyridin-3-ylpyrazine-2-carboxamide tri-hydrochloride], the EC50 is around 242 nM.
